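A five-concentration, 48-hour dose response in 96-well plates underlies each endpoint, interpolated linearly between surrounding concentrations. GI50 is the concentration that inhibits growth by half.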 The source made the active and inactive calls. Cut-off read from the data, not from the text of the source: active = GI50 up to about 1.1 µM and inactive = higher.
How the values were obtained:
Assay in all cases: DTP human tumour cell line panel, 48 h
COLO 205 = tested on: COLO 205
SK-OV-3 = tested on: SK-OV-3
MOLT-4 = tested on: MOLT-4
MCF7 = tested on: MCF7
MDA-MB-231 = tested on: MDA-MB-231
RXF 393 = tested on: RXF 393
HCC 2998 = tested on: HCC 2998
HT-29 = tested on: HT-29
DU-145 = tested on: DU-145
PC-3 = tested on: PC-3
U-251 = tested on: U-251
SK-MEL-5 = tested on: SK-MEL-5
HOP-62 = tested on: HOP-62
UO-31 = tested on: UO-31
Malme-3M = tested on: Malme-3M
HOP-92 = tested on: HOP-92
NCI-H522 = tested on: NCI-H522
KM12 = tested on: KM12
SF-295 = tested on: SF-295
A498 = tested on: A498

Cn1c2ccccc2c(=O)c2c(O)cc3c(c21)C1OCC(C)(O)C1O3 (stereo unspecified)
GI50 (COLO 205): 51.1 µM (inactive)
GI50 (SK-OV-3): 37.2 µM (inactive)
GI50 (MOLT-4): 28.2 µM (inactive)
GI50 (MCF7): 51.5 µM (inactive)
GI50 (MDA-MB-231): > 100 µM (inactive)
GI50 (RXF 393): 22.5 µM (inactive)
GI50 (HCC 2998): > 100 µM (inactive)
GI50 (HT-29): 31.8 µM (inactive)
GI50 (DU-145): 29.2 µM (inactive)
GI50 (PC-3): 44.7 µM (inactive)
GI50 (U-251): 21.4 µM (inactive)
GI50 (SK-MEL-5): 50.2 µM (inactive)
GI50 (HOP-62): 23.6 µM (inactive)
GI50 (UO-31): 5.4 µM (inactive)

Cc1nc2sc(CCl)nn2c(=O)c1Cl
GI50 (COLO 205): 16.7 µM (inactive)
GI50 (Malme-3M): 11.2 µM (inactive)
GI50 (SK-OV-3): 14.6 µM (inactive)
GI50 (MOLT-4): 6.03 µM (inactive)
GI50 (MCF7): 4.58 µM (inactive)
GI50 (MDA-MB-231): 20.5 µM (inactive)
GI50 (RXF 393): 4.57 µM (inactive)
GI50 (HCC 2998): 22 µM (inactive)
GI50 (HT-29): 12.9 µM (inactive)
GI50 (HOP-92): 5.7 µM (inactive)
GI50 (DU-145): 16.1 µM (inactive)
GI50 (PC-3): 12.3 µM (inactive)
GI50 (NCI-H522): 3.15 µM (inactive)
GI50 (KM12): 11.9 µM (inactive)
GI50 (U-251): 6.08 µM (inactive)
GI50 (SK-MEL-5): 5.07 µM (inactive)
GI50 (HOP-62): 17.6 µM (inactive)
GI50 (UO-31): 14.2 µM (inactive)
GI50 (SF-295): 16.6 µM (inactive)

CCOP(=O)(OCC)[C@]12C[C@@H](C)C=C[C@H]1COC2=O
GI50 (COLO 205): > 100 µM (inactive)
GI50 (Malme-3M): > 100 µM (inactive)
GI50 (A498): > 100 µM (inactive)
GI50 (SK-OV-3): > 100 µM (inactive)
GI50 (MOLT-4): > 100 µM (inactive)
GI50 (MCF7): > 100 µM (inactive)
GI50 (MDA-MB-231): > 100 µM (inactive)
GI50 (RXF 393): > 100 µM (inactive)
GI50 (HCC 2998): > 100 µM (inactive)
GI50 (DU-145): > 100 µM (inactive)
GI50 (PC-3): > 100 µM (inactive)
GI50 (NCI-H522): > 100 µM (inactive)
GI50 (KM12): > 100 µM (inactive)
GI50 (U-251): > 100 µM (inactive)
GI50 (SK-MEL-5): > 100 µM (inactive)
GI50 (HOP-62): > 100 µM (inactive)
GI50 (UO-31): > 100 µM (inactive)
GI50 (SF-295): > 100 µM (inactive)

CCN(CC)C(=S)N/N=C/c1cc([N+](=O)[O-])ccc1O
GI50 (COLO 205): 3.4 µM (inactive)
GI50 (Malme-3M): 6.68 µM (inactive)
GI50 (A498): 2.25 µM (inactive)
GI50 (SK-OV-3): 3.95 µM (inactive)
GI50 (MOLT-4): 1.8 µM (inactive)
GI50 (MCF7): 2.22 µM (inactive)
GI50 (MDA-MB-231): 8.18 µM (inactive)
GI50 (RXF 393): 6.97 µM (inactive)
GI50 (HCC 2998): 8.53 µM (inactive)
GI50 (HT-29): 5.45 µM (inactive)
GI50 (DU-145): 4.56 µM (inactive)
GI50 (PC-3): 4.92 µM (inactive)
GI50 (NCI-H522): 5.07 µM (inactive)
GI50 (KM12): 4.07 µM (inactive)
GI50 (U-251): 4.24 µM (inactive)
GI50 (SK-MEL-5): 2.02 µM (inactive)
GI50 (HOP-62): 7.4 µM (inactive)
GI50 (UO-31): 3.12 µM (inactive)
GI50 (SF-295): 4.56 µM (inactive)

COc1ccc(C#CC(=O)O)c(OC)c1
GI50 (COLO 205): > 100 µM (inactive)
GI50 (Malme-3M): > 100 µM (inactive)
GI50 (A498): > 100 µM (inactive)
GI50 (SK-OV-3): > 100 µM (inactive)
GI50 (MOLT-4): > 100 µM (inactive)
GI50 (MCF7): > 100 µM (inactive)
GI50 (MDA-MB-231): > 100 µM (inactive)
GI50 (HCC 2998): > 100 µM (inactive)
GI50 (HT-29): > 100 µM (inactive)
GI50 (HOP-92): > 100 µM (inactive)
GI50 (DU-145): > 100 µM (inactive)
GI50 (PC-3): > 100 µM (inactive)
GI50 (KM12): > 100 µM (inactive)
GI50 (U-251): > 100 µM (inactive)
GI50 (SK-MEL-5): > 100 µM (inactive)
GI50 (HOP-62): > 100 µM (inactive)
GI50 (UO-31): > 100 µM (inactive)
GI50 (SF-295): > 100 µM (inactive)

Clc1ccc(-c2cn3c(nc4ccccc43)c(/C=C/c3cccs3)n2)cc1
GI50 (COLO 205): > 100 µM (inactive)
GI50 (Malme-3M): > 100 µM (inactive)
GI50 (A498): > 100 µM (inactive)
GI50 (SK-OV-3): > 100 µM (inactive)
GI50 (MCF7): 7.08 µM (inactive)
GI50 (MDA-MB-231): 53.7 µM (inactive)
GI50 (RXF 393): > 100 µM (inactive)
GI50 (HCC 2998): > 100 µM (inactive)
GI50 (HT-29): > 100 µM (inactive)
GI50 (HOP-92): > 100 µM (inactive)
GI50 (DU-145): > 100 µM (inactive)
GI50 (PC-3): 44.9 µM (inactive)
GI50 (KM12): 33.7 µM (inactive)
GI50 (U-251): 95.7 µM (inactive)
GI50 (SK-MEL-5): > 100 µM (inactive)
GI50 (HOP-62): > 100 µM (inactive)
GI50 (UO-31): > 100 µM (inactive)

O=C(Nc1ccc(Cl)c(Cl)c1)OCCN1c2ccccc2Sc2ccccc21
GI50 (COLO 205): > 10 µM (inactive)
GI50 (Malme-3M): > 10 µM (inactive)
GI50 (SK-OV-3): > 10 µM (inactive)
GI50 (MOLT-4): > 10 µM (inactive)
GI50 (MCF7): > 10 µM (inactive)
GI50 (MDA-MB-231): > 10 µM (inactive)
GI50 (HCC 2998): > 10 µM (inactive)
GI50 (HT-29): > 10 µM (inactive)
GI50 (HOP-92): > 10 µM (inactive)
GI50 (DU-145): > 10 µM (inactive)
GI50 (PC-3): > 10 µM (inactive)
GI50 (NCI-H522): > 10 µM (inactive)
GI50 (KM12): > 10 µM (inactive)
GI50 (U-251): > 10 µM (inactive)
GI50 (SK-MEL-5): > 10 µM (inactive)
GI50 (HOP-62): > 10 µM (inactive)
GI50 (SF-295): > 10 µM (inactive)

C=C1C(=O)OC2CC(C)C3C=CC(=O)C3CC12 (stereo unspecified)
GI50 (COLO 205): 1.52 µM (inactive)
GI50 (Malme-3M): 2.05 µM (inactive)
GI50 (A498): 11.5 µM (inactive)
GI50 (SK-OV-3): 16.1 µM (inactive)
GI50 (MOLT-4): 1.5 µM (inactive)
GI50 (MDA-MB-231): 1.89 µM (inactive)
GI50 (RXF 393): 1.53 µM (inactive)
GI50 (HCC 2998): 4.73 µM (inactive)
GI50 (HT-29): 1.72 µM (inactive)
GI50 (HOP-92): 1.88 µM (inactive)
GI50 (DU-145): 5.41 µM (inactive)
GI50 (PC-3): 2.37 µM (inactive)
GI50 (NCI-H522): 0.61 µM (active)
GI50 (KM12): 5.64 µM (inactive)
GI50 (U-251): 6.76 µM (inactive)
GI50 (SK-MEL-5): 2.14 µM (inactive)
GI50 (HOP-62): 15.9 µM (inactive)
GI50 (UO-31): 2.9 µM (inactive)
GI50 (SF-295): 14.6 µM (inactive)

Reference: ChEMBL document CHEMBL1201862, “PubChem BioAssay data set” (2004)
